# Reference: patent publication US8252524B2, “Method of screening pharmaceutical compositions that promote nuclear transfer of Cdc42 protein” (Kowa Company, Ltd., priority 2004, dated 2012)
# Tests used:
# [1] = system: Cdc42 protein; assay: Nuclear transfer of GFP/Cdc42 fusion protein in transformed HUVEC observed by fluorescence microscopy; type: cell-based; conditions: HUVEC expressing GFP/Cdc42 fusion protein; 1 μM final concentration; 15 hours culture; nuclei confirmed by Hoechst staining
# Procedure: The present inventors measured the behavior of Cdc42 protein in HUVEC with an HMG-CoA reductase inhibitor, particularly pitavastatin. For this measurement, a gene encoding a Cdc42/fluorescence protein GFP fusion protein was introduced into HUVEC to prepare a transformed cell expressing a GFP/Cdc42 fusion protein. This transformed cell was cultured, and the state of Cdc42 distributed in the cell in the presence or absence of pitavastatin was examined by observing the fluorescence of GFP. A gene encoding the whole area of a Cdc42 translation region was introduced into a predetermined position of a commercial plasmid pEGFP-C1 for preparation of a fusion protein consisting of GFP and a desired protein, to construct a plasmid comprising the GFP-Cdc42 gene. After […] were put to a 6-well plate and then cultured overnight in EGM-2 medium. Using Fugene 6, the plasmid construct DNA prepared above was added in an amount of 0.8 μg/well to the cells. The cells were further cultured for 21 hours in EGM-2 medium, and then the fluorescence of GFP was observed under a fluorescence microscope. […] And then the cells were subjected to stationary culture for 15 hours, fixed onto a prepared slide and observed under a fluorescence microscope. […]
# [2] = system: vascular endothelial cells; conditions: cited from earlier work
smiles,measurement,setting,value
"O=C(O)C[C@H](O)C[C@H](O)/C=C/c1c(C2CC2)nc2ccccc2c1-c1ccc(F)cc1 [pitavastatin, (3R,5S,6E)-7-[2-cylopropyl-4-(4-fluorophenyl)-3-quinolyl]-3,5-dihydroxy-6-heptenoic acid]",Distribution of GFP-Cdc42 in the cell (transfer into the nucleus),[1],GFP-Cdc42 is transferred to a nucleus
same,Expression of NO synthase and thrombomodulin,[2],promotes expression of NO synthase
same,Expression of PTX3,[2],suppresses expression of PTX3
same,"Expression of inflammatory cytokine IL-8 or MCP-1, endothelin and PAI-1",[2],"suppresses expression of inflammatory cytokine IL-8 or MCP-1, expression of endothelin and expression of PAI-1"
